From US4514330A, “Carbon-7-substituted atinomycin D analogue” (Trustees of Boston University, priority 1983, dated 1985)
Converted amounts (≈) assume the structure as drawn. Read-outs that look alike come from different tables or passages of the source. Starred links: 1 amine or outer side, 2 acyl side, 3 side chain; linkers in the order of their positions; H or OH if unused. Positions of bridges follow the written chain, without caps; N, C: chain ends. Non-standard residues stand in square brackets, D forms with d. Residues, ends and D or L forms follow the SMILES beside them. Chains are numbered I, II in the order given. Actinocin(9to1) = Cc1c2oc3c(C)ccc(C(=O)[*:1])c3nc-2c(C(=O)[*:2])c(N)c1=O; NMeV = CN[C@H](C(=O)O)C(C)C; Sar = CNCC(=O)O

Tests used:
DNA [1] = experiment: Thermal denaturation of DNA (ΔTm), stabilization of DNA helical structure on drug binding; parameters: species or system calf thymus
Description: Thermal denaturation studies were carried out according to the procedure described in J. Med. Chem., Vol. 24, p. 1052 (1981). The ΔTm values in Table II give a measure of stabilization of DNA helical structure as a consequence of drug binding.
^a ΔTm = m of DNAdrug complex minus m of DNA.
Concentraiton of drug, 1.4 × 10^-4 M; of DNA (P), 1.4 ×
10^-3 M in 0.01 M phosphate buffer (pH 7.0), 5 × 10^-3 M in
EDTA and 5% dimethyl sulfoxide.
^d Highest dose tested. These values are derived at high temperatur
(67°-75° C.) and may not always correlate with the results
of other DNA-binding studies (e.g., absorptiometric or circular dichroic).
Melting points were obtained with a Thomas-Hoover melting point apparatus at a heating rate of 2° C./min. Column chromatography was accomplished with silica gel powder (Baker No. 3405, 60-20 mesh) or acid alumina (Woelm grade 1). Limited gel-filtration work was done on Sephadex LH-20, particle size 25-100 μm (Pharmacia Fine Chemicals). Thin-layer chromatography was performed on silica gel plates (E. M. Laboratories, Inc.). Solvent systems used were (A) butanol-formic acid-H2 O (75:13:12), (B) EtOAc-acetone (3:1), and (C) Cifferri, the organic phase of the mixture EtOAc-MeOH-H2 O (20:1:20). High-performance liquid chromatography was carried out on a Varian Model 5020 gradient liquid chromatograph equipped with CD-111L chromatography data system and fitted with Varian reversed-phase C18 column with isocratic solvent systems, CH3 -CN-5 mM NH4 OAc buffer, pH 6.4 (68:32 or 62:38), pressure 80-140 atm, flow rate 1.5 mL/min, with UV-visible variable and fixed wavelength dual detectors at 254 and 466 nm. Spectra were determined on the following instruments: IR spectra were obtained with a Perkin-Elmer Model 237 Infra Cord with KBr micropellets or chloroform solutions; UV-visible spectra were obtained on a Gilford 250 spectrophotometer, which, with the addition of a base-line reference compensator (Analog Multiplexer 6064) and thermoprogrammer, auto four cell programmer and thermoelectric cell holder 2577, was used to obtain thermal denaturation curves; NMR spectra were obtained on a JOEL FQ-90-90MHZ spectrometer equipped with Fourier transform; and CD spectra were obtained on a Cary 61 spectrophotometer. All elemental analyses were within ±0.4% of the theoretical values. Actinomycin D, batch no. NCS 3053, lot L554651-0-10, was provided by Natural Products Branch, National Cancer Institute, Silver Spring, Md. Calf thymus DNA type 1 was purchased from Sigma Chemical Co.

[2] = tested on: human lymphoblastic leukemic cells (CCRF-CEM); experiment: In vitro growth-inhibitory activity against human lymphoblastic leukemic cells (CCRF-CEM) in log phase; assay type: cell-based; details: Homo sapiens, final growth medium contained 1% Me2SO, log phase, read-out: ID50 (in vitro growth inhibition, CCRF-CEM)
Description: ^b Using human lymohoblastic leukemia cells in logplastic growth.
Compounds were dissolved in Me2 So medium, final growth medium

P-388 leukemia = experiment: In vivo antitumor activity against P-388 lymphocytic leukemia in CDF1 mice; details: for % ILS (percent increase in life span) / MST (median survival time) / cure (over 55 day survivors): days 1, 5, 9; for minimal effective dose: Mus musculus, P388, ip, read-out: MED (minimum effective dose, 40% increase in life span over control)
Description: Studies on in vivo activity of AMD and AMD analogues were carried out with P-388 lymphocytic leukemia in CDF1 hybrid mice. The drugs were administered either daily for 4 successive days (qd 1-4) or on days 1, 5 and 9 (q4d 1, 5, 9) beginning 1 day after tumor implantation.
^a Male CDF1 (18-23 g) mice were inoculated intraperitoneally
(ip) with 10^6 P388 cells on day 0. Drugs were administered, also ip,
in 10% dimethyl sulfoxidesaline on days 1, 5 and 9. Test solutions were
kept at 0-4° C., protected from light, and the stability and
homogeneity were checked periodically by TLC and HPLC.
^b MST = median survival time.
^c % ILS = percent increase in life span.
^d Over 55 day survivors. Average of three experiments. The
^a Drugs administed ip once daily either for 4 successive days (qd
1-4) or on days 1, 5 and 9 (q4d 1, 5 9), starting 1 day after tumor
^b MED (minimum effective dose) is the dose (milligrams/kilogram)
providing an increase in life span of 40% over control in P388

normal CDF1 male mice = experiment: Maximum tolerated dose (LD10) in normal, tumor-free CDF1 male mice; assay type: in vivo; details: deaths during 21 days
Description: ^c MTD (maximum tolerated dose) is the lethal dose
(milligrams/kilogram) for 10% normal CDF1 male mice (18-23 g);
were calculated from a plot of log dose vs. percent mortality. Average of
two to three experiments.
Biological Experiments. Determination of LD10 Values. Tumor-free CDF1 male mice weighing 18-23 g were given a broad range of doses of drugs in 10% dimethyl sulfoxide-saline on either days 1, 5 and 9 or on 4 successive days. Drugs were administered intraperitoneally (ip).
The maximum tolerated doses of AMD and analogues that caused deaths in only 10% of the tested animals in 21 days were recorded as MTD. The results are an average of two experiments in each. The MTD values obtained following schedules q4d 1, 5, 9 (three injections) and qd 1-4 (four injections) are recorded in Table IV. These doses are the same as LD10 (lethal dose of 10% of tumor-free animals in 21 days).

[3] = tested on: spleen, liver, kidney, large and small intestine, heart, lung, pancreas and adrenals; experiment: Gross pathology of organ sections at LD10 (MTD) dose levels, day 14; assay type: in vivo, CDF1 mice
Description: In an additional experiment, two animals at LD10 (or MTD) dose levels were sacrificed on day 14, and the organ sections from these animals were evaluated for gross pathology in the following way. Organs, e.g., spleen, liver, kidney, large and small intestine, heart, lung, pancreas and adrenals, were removed and fixed in 10% […] buffer formalin. They were kept immersed for 2 weeks; tissues were dehydrated through graded alcohols (70, 90, 95 and 100%), cleared in cedarwood oil and embedded in paraffin. Sections were cut in 7 μm and mounted with gelatin on microscope slides. After drying, sections were stained with Mayer's hematoxylin and eosin and examined with light microscopy.

DNA [4] = details: known analogues; cited from earlier work
[5] = tested on: DNA-dependent RNA synthesis; details: submicromolar concentrations; cited from earlier work
[6] = tested on: Wilm's tumor, gestational choriocarcinoma, and Kaposi's sarcoma; details: cited from earlier work
proliferating cells = details: cited from earlier work
[7] = cited from earlier work
patients = details: attributed to lack of metabolism / excretion; listed as AMD; cited from earlier work
[8] = three injections ip, q4d 1, 5, 9

For `Cc1c2oc3c(C)ccc(C(=O)N[C@@H]4C(=O)N[C@H](C(C)C)C(=O)N5CCC[C@H]5C(=O)N(C)CC(=O)N(C)[C@@H](C(C)C)C(=O)O[C@@H]4C)c3nc-2c(C(=O)N[C@@H]2C(=O)N[C@H](C(C)C)C(=O)N3CCC[C@H]3C(=O)N(C)CC(=O)N(C)[C@@H](C(C)C)C(=O)O[C@@H]2C)c(N)c1=O` [Compound 1b, Actinomycin D, reference compound] (I: T[dV]P[Sar][NMeV] / II: T[dV]P[Sar][NMeV]; ester I:1-I:C, II:1-II:C; linker I:N-II:N via Actinocin(9to1)), the “Tm (ΔTm = Tm of DNA-drug complex minus Tm of DNA)” value (DNA [1]; drug 1.4 × 10^-4 M, DNA (P) 1.4 × 10^-3 M, 0.01 M phosphate buffer pH 7.0, EDTA, 5% dimethyl sulfoxide) was 7.1 ± 0.15 °C, the “DNA melting profile / ΔTm character of the DNA complex” value (DNA [1]; thermal denaturation, words) was “sharp and smooth” and the IC50 [2] was 0.06 µg/mL (≈ 0.0478 µM). For the same compound, the “% ILS (percent increase in life span)” value (P-388 leukemia; 0.031 mg/kg ip) was 18%, the “MST (median survival time)” value (P-388 leukemia; 0.031 mg/kg ip) was 13 days and the “cure (over 55 day survivors)” value (P-388 leukemia; 0.031 mg/kg ip) was 0/7. For the same compound, the “% ILS (percent increase in life span)” value (P-388 leukemia; 0.062 mg/kg ip) was 45%, the “MST (median survival time)” value (P-388 leukemia; 0.062 mg/kg ip) was 16 days and the “cure (over 55 day survivors)” value (P-388 leukemia; 0.062 mg/kg ip) was 1/7. The “% ILS (percent increase in life span)” value (P-388 leukemia; 0.125 mg/kg ip) was 136%, the “MST (median survival time)” value (P-388 leukemia; 0.125 mg/kg ip) was 26 days and the “cure (over 55 day survivors)” value (P-388 leukemia; 0.125 mg/kg ip) was 0/7. The “% ILS (percent increase in life span)” value (P-388 leukemia; 0.250 mg/kg ip) was 55%, the “MST (median survival time)” value (P-388 leukemia; 0.250 mg/kg ip) was 17 days and the “cure (over 55 day survivors)” value (P-388 leukemia; 0.250 mg/kg ip) was 0/7. For the same compound, the “MST (median survival time)” value (P-388 leukemia; 0.375 mg/kg ip) was 9 days, the minimal effective dose (P-388 leukemia; four injections ip, qd 1-4) was 0.05 mg/kg and the minimal effective dose (P-388 leukemia; [8]) was 0.0625 mg/kg. The “therapeutic index: MTD/MED” value (P-388 leukemia; four injections ip, qd 1-4) was 3, the “activity in respect of % ILS, 1b versus 2b” value (P-388 leukemia; ip, q4d 1, 5, 9) was “approximately equiactive” and the “breadth of dose-response curve” value (P-388 leukemia; ip, q4d 1, 5, 9) was “very narrow”. For the same compound, the “therapeutic index: MTD/MED” value (P-388 leukemia; [8]) was 4, the “MTD (maximum tolerated dose, lethal for 10% of normal mice; = LD10)” value (normal CDF1 male mice; four injections ip, qd 1-4) was 0.15 milligrams/kilogram and the “MTD (maximum tolerated dose, lethal for 10% of normal mice; = LD10)” value (normal CDF1 male mice; [8]) was 0.25 milligrams/kilogram. For the same compound, the “pathology of spleen sections” value [3] was “haematopoiesis indicative of bone-marrow toxicity”, the “mode of DNA binding, same way as AMD” value (DNA [4]) was “by intercalation of the chromophore and concomitant hydrogen and hydrophobic interactions of the peptide lactones” and the “inhibition of DNA-dependent RNA synthesis” value [5] was “strongly inhibits”. The “activity in several tumors” value [6] was “potent activity”, the “cytotoxicity in proliferating cells versus nonproliferating (liver, kidney, muscle)” value (proliferating cells) was “far more cytotoxic in those proliferating cells” and the in vivo metabolism [7] was “not metabolized in vivo”. For the same compound, the toxicity (patients) was “acute and cumulative toxicity”.
